Experimental data published in PubChem BioAssay AID248 (DTP/NCI, 2004).
Where “and” joins values, the source holds several entries; their conditions need not be identical. Identical values can stand only once. Inconclusive results and toxic doses are left out.

System: L1210 leukemia ip in BDF1 mice, survival T/C
Assay: NCI In Vivo Anticancer Drug Screen. Data for tumor model L1210 Leukemia (intraperitoneal) in B6D2F1 (BDF1) mice
Conditions: endpoint: mean survival time, higher = longer survival
Outline: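 In this screen, tumor-bearing mice given compound are compared to those given vehicle, and their survival values are reported as a treated-to-control quotient.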

[1] = dose: 100.0 mg/kg/injection, schedule: Q01DX009 (ip), vehicle: saline
[2] = dose: 100.0 mg/kg/injection, schedule: Q04DX003 (ip), vehicle: saline
[3] = dose: 200.0 mg/kg/injection, schedule: Q01DX009 (ip), vehicle: saline
[4] = dose: 200.0 mg/kg/injection, schedule: Q04DX003 (ip), vehicle: saline
[5] = dose: 400.0 mg/kg/injection, schedule: Q01DX009 (ip), vehicle: saline
[6] = dose: 400.0 mg/kg/injection, schedule: Q04DX003 (ip), vehicle: saline
[7] = dose: 100.0 mg/kg/injection, schedule: Q01DX001 (ip), vehicle: carboxymethylcellulose (CMC)
[8] = dose: 200.0 mg/kg/injection, schedule: Q01DX001 (ip), vehicle: carboxymethylcellulose (CMC)
[9] = dose: 400.0 mg/kg/injection, schedule: Q01DX001 (ip), vehicle: carboxymethylcellulose (CMC)
[10] = dose: 100.0 mg/kg/injection, schedule: Q04DX002 (ip), vehicle: Klucel (hydroxypropylcellulose) (HPC)
[11] = dose: 200.0 mg/kg/injection, schedule: Q04DX002 (ip), vehicle: Klucel (hydroxypropylcellulose) (HPC)
[12] = dose: 100.0 mg/kg/injection, schedule: Q04DX003 (ip), vehicle: saline with Tween-80
[13] = dose: 200.0 mg/kg/injection, schedule: Q04DX003 (ip), vehicle: saline with Tween-80
[14] = dose: 400.0 mg/kg/injection, schedule: Q04DX003 (ip), vehicle: saline with Tween-80
[15] = dose: 100.0 mg/kg/injection, schedule: Q01DX009 (ip), vehicle: Klucel (hydroxypropylcellulose) (HPC)
[16] = dose: 200.0 mg/kg/injection, schedule: Q01DX009 (ip), vehicle: Klucel (hydroxypropylcellulose) (HPC)
[17] = dose: 400.0 mg/kg/injection, schedule: Q01DX009 (ip), vehicle: Klucel (hydroxypropylcellulose) (HPC)
[18] = dose: 100.0 mg/kg/injection, schedule: Q04DX002 (ip), vehicle: saline with Tween-80
[19] = dose: 200.0 mg/kg/injection, schedule: Q04DX002 (ip), vehicle: saline with Tween-80
[20] = dose: 400.0 mg/kg/injection, schedule: Q04DX002 (ip), vehicle: saline with Tween-80
[21] = dose: 100.0 mg/kg/injection, schedule: Q04DX003 (ip), vehicle: Klucel (hydroxypropylcellulose) (HPC)
[22] = dose: 200.0 mg/kg/injection, schedule: Q04DX003 (ip), vehicle: Klucel (hydroxypropylcellulose) (HPC)
[23] = dose: 400.0 mg/kg/injection, schedule: Q04DX003 (ip), vehicle: Klucel (hydroxypropylcellulose) (HPC)
[24] = dose: 50.0 mg/kg/injection, schedule: Q01DX009 (ip), vehicle: saline
[25] = dose: 100.0 mg/kg/injection, schedule: Q01DX001 (ip), vehicle: saline
[26] = dose: 200.0 mg/kg/injection, schedule: Q01DX001 (ip), vehicle: saline
[27] = dose: 400.0 mg/kg/injection, schedule: Q01DX001 (ip), vehicle: saline
[28] = dose: 100.0 mg/kg/injection, schedule: Q01DX009 (ip), vehicle: saline with Tween-80
[29] = dose: 200.0 mg/kg/injection, schedule: Q01DX009 (ip), vehicle: saline with Tween-80

## NC(CS)(CS)C(=O)O
dose: 15.0 mg/kg/injection, schedule: Q01DX015 (ip), vehicle: carboxymethylcellulose (CMC)
  T/C: 107 % of control
dose: 30.0 mg/kg/injection, schedule: Q01DX015 (ip), vehicle: carboxymethylcellulose (CMC)
  T/C: 113 % of control
dose: 60.0 mg/kg/injection, schedule: Q01DX015 (ip), vehicle: carboxymethylcellulose (CMC)
  T/C: 120 % of control

## Cc1cc[n+](CCC(N)=O)cc1
[1]
  T/C: 95 % of control
[2]
  T/C: 93 % of control
[3]
  T/C: 93 % of control
[4]
  T/C: 98 % of control
[5]
  T/C: 93 % of control
[6]
  T/C: 102 % of control

## C/C=C/c1nc2c(c(=O)n(C)c(=O)n2C)n1C
dose: 50.0 mg/kg/injection, schedule: Q01DX001 (ip), vehicle: carboxymethylcellulose (CMC)
  T/C: 106 % of control
[7]
  T/C: 95 % of control
[8]
  T/C: 103 % of control
[9]
  T/C: 97 % of control

## CCO/C=C1/C(=O)N(C)c2c1c(=O)n(C)c(=O)n2C
[10]
  T/C: 106 % of control
[11]
  T/C: 109 % of control

## Cc1cccc(NC(C(=O)O)c2ccccc2)c1 (centres undefined)
[10]
  T/C: 100 % of control
[11]
  T/C: 93 % of control
dose: 400.0 mg/kg/injection, schedule: Q04DX002 (ip), vehicle: Klucel (hydroxypropylcellulose) (HPC)
  T/C: 89 % of control

## COc1ccc(OC)c2[nH]c(=O)c(-c3ccccc3)nc12
[12]
  T/C: 97 % of control
[13]
  T/C: 95 % of control
[14]
  T/C: 91 % of control

## CCN(CC)c1cc2c(cc1Br)-c1ccccc1C2=O
[12]
  T/C: 101 % of control
[13]
  T/C: 104 % of control
[14]
  T/C: 106 % of control

## COc1cc2ccc3c(c2cc1OC)CCc1cnoc1-3
[12]
  T/C: 95 % of control
[13]
  T/C: 98 % of control
[14]
  T/C: 98 % of control

## COc1cc(C(=O)NN(C)C)cc(OC)c1OC
[7]
  T/C: 97 % of control
[8]
  T/C: 101 % of control
[9]
  T/C: 101 % of control

## COc1ccc(Cl)cc1NC(=O)Oc1ccc(C=O)cc1OC
[15]
  T/C: 102 % of control and 114 % of control
[16]
  T/C: 98 % of control and 104 % of control
[17]
  T/C: 104 % of control and 109 % of control

## N#C/C(=C\C1CC(Br)CC(Br)C1O)C1CCC([N+](=O)[O-])CC1 (centres undefined)
[18]
  T/C: 90 % of control
[19]
  T/C: 90 % of control
[20]
  T/C: 93 % of control

## COc1ccc(C(=O)NC(=S)Nc2ccccc2F)cc1
[15]
  T/C: 93 % of control
[21]
  T/C: 94 % of control
[16]
  T/C: 90 % of control
[22]
  T/C: 93 % of control
[23]
  T/C: 94 % of control

## CC(C)N=C(N)c1ccc(NC(=O)c2ccc(C(=O)Nc3ccc(C(N)=NC(C)C)cc3)cc2)cc1
dose: 0.12 mg/kg/injection, schedule: Q01DX Z (ip), vehicle: water
  T/C: 101 % of control
dose: 0.25 mg/kg/injection, schedule: Q01DX Z (ip), vehicle: water
  T/C: 108 % of control
dose: 0.5 mg/kg/injection, schedule: Q01DX Z (ip), vehicle: water
  T/C: 113 % of control
dose: 1.0 mg/kg/injection, schedule: Q01DX Z (ip), vehicle: water
  T/C: 162 % of control
dose: 1.25 mg/kg/injection, schedule: Q01DX Z (ip), vehicle: other
  T/C: 237 % of control
dose: 2.5 mg/kg/injection, schedule: Q01DX Z (ip), vehicle: other
  T/C: 172 % of control
dose: 5.0 mg/kg/injection, schedule: Q01DX Z (ip), vehicle: other
  T/C: 118 % of control
dose: 62.0 mg/kg/injection, schedule: Q01DX Z (oral), vehicle: alkali diluted with CMC
  T/C: 104 % of control
dose: 125.0 mg/kg/injection, schedule: Q01DX Z (oral), vehicle: alkali diluted with CMC
  T/C: 93 % of control
dose: 250.0 mg/kg/injection, schedule: Q01DX Z (oral), vehicle: alkali diluted with CMC
  T/C: 96 % of control
dose: 500.0 mg/kg/injection, schedule: Q01DX Z (oral), vehicle: alkali diluted with CMC
  T/C: 90 % of control

## CC(=O)N(N=Nc1ccccc1)c1cccc2ccccc12
[15]
  T/C: 116 % of control
[21]
  T/C: 108 % of control
[16]
  T/C: 96 % of control
[22]
  T/C: 109 % of control
[23]
  T/C: 108 % of control

## Cc1ccc(S(=O)(=O)OCC(CO)(CO)[N+](=O)[O-])cc1
[24]
  T/C: 90 % of control
[1]
  T/C: 92 % of control
[2]
  T/C: 97 % of control
[3]
  T/C: 90 % of control
[4]
  T/C: 88 % of control

## Cc1cccc(C)c1N=C/C=C/c1ccccc1
[15]
  T/C: 100 % of control
[16]
  T/C: 88 % of control
[17]
  T/C: 102 % of control

## COC1=CC23CCCN2CCc2cc4c(cc2C3C1OC(C)=O)OCO4 (centres undefined)
dose: 25.0 mg/kg/injection, schedule: Q01DX009 (ip), vehicle: saline
  T/C: 106 % of control
[24]
  T/C: 106 % of control
[1]
  T/C: 102 % of control

## NCC1CCCC1N (centres undefined)
dose: 18.8 mg/kg/injection, schedule: Q01DX009 (ip), vehicle: saline
  T/C: 102 % of control
dose: 37.5 mg/kg/injection, schedule: Q01DX009 (ip), vehicle: saline
  T/C: 102 % of control
dose: 75.0 mg/kg/injection, schedule: Q01DX009 (ip), vehicle: saline
  T/C: 97 % of control

## CS(=O)c1ccc(/C=C2/C=Cc3ccccc32)cc1 (centres undefined)
[15]
  T/C: 91 % of control
[16]
  T/C: 103 % of control
[17]
  T/C: 101 % of control

## COC1OC(COC(=O)c2ccc([N+](=O)[O-])cc2)C(OCc2ccccc2)C1OC(=O)c1ccc([N+](=O)[O-])cc1 (centres undefined)
dose: 50.0 mg/kg/injection, schedule: Q01DX001 (ip), vehicle: saline
  T/C: 113 % of control
[25]
  T/C: 105 % of control
[26]
  T/C: 116 % of control
[27]
  T/C: 105 % of control

## c1ccc2nc3nc4ccccc4nc3nc2c1
dose: 5.0 mg/kg/injection, schedule: Q04DX002 (ip), vehicle: gum acacia
  T/C: 90 % of control
dose: 10.0 mg/kg/injection, schedule: Q04DX002 (ip), vehicle: gum acacia
  T/C: 93 % of control
dose: 20.0 mg/kg/injection, schedule: Q04DX002 (ip), vehicle: gum acacia
  T/C: 93 % of control and 94 % of control
dose: 75.0 mg/kg/injection, schedule: Q01DX001 (ip), vehicle: other
  T/C: 102 % of control
[18]
  T/C: 106 % of control
dose: 150.0 mg/kg/injection, schedule: Q01DX001 (ip), vehicle: other
  T/C: 98 % of control
[19]
  T/C: 100 % of control
dose: 300.0 mg/kg/injection, schedule: Q01DX001 (ip), vehicle: other
  T/C: 103 % of control
[20]
  T/C: 91 % of control

## COC(=O)CC(O)C(=O)OC (centres undefined)
[1]
  T/C: 102 % of control
[2]
  T/C: 109 % of control
[3]
  T/C: 93 % of control
[4]
  T/C: 104 % of control
[5]
  T/C: 96 % of control
[6]
  T/C: 110 % of control

## C[CH2][Ge]([CH2]C)[CH2]C.C[CH2][Ge]([CH2]C)[CH2]C.C[CH2][Ge]([CH2]C)[O][Ge]([CH2]C)[CH2]C
[18]
  T/C: 106 % of control
[19]
  T/C: 106 % of control
[20]
  T/C: 116 % of control

## CCC1(CCC#N)CCc2[nH]c3ccccc3c2C1=O (centres undefined)
[18]
  T/C: 108 % of control
[19]
  T/C: 94 % of control
[20]
  T/C: 87 % of control

## CC1C2CCC(C2)C1CO (centres undefined)
[2]
  T/C: 97 % of control
[4]
  T/C: 101 % of control
[6]
  T/C: 101 % of control

## CCOC(=O)CNC(=O)Nc1ccc(S(N)(=O)=O)cc1
[28]
  T/C: 95 % of control
[29]
  T/C: 96 % of control
dose: 400.0 mg/kg/injection, schedule: Q01DX009 (ip), vehicle: saline with Tween-80
  T/C: 96 % of control

## CN(C)CCn1c2ccccc2c2ccccc21
[12]
  T/C: 92 % of control
[13]
  T/C: 92 % of control
[14]
  T/C: 95 % of control

## O=C(O)C1C2C=CC(C2)C1C(=O)Nc1ccccn1 (centres undefined)
dose: 50.0 mg/kg/injection, schedule: Q01DX009 (ip), vehicle: saline with Tween-80
  T/C: 104 % of control
[28]
  T/C: 101 % of control
[29]
  T/C: 96 % of control

## C=CC(=O)NC(C)C(=O)O (centres undefined)
[25]
  T/C: 95 % of control
[26]
  T/C: 102 % of control
[27]
  T/C: 98 % of control
